{"source": "patent US20160367497A1", "about": "“METHODS AND COMPOSITIONS FOR TREATING NEUROPATHIES” (Washington University, priority 2007, published 2016)", "key": {"[1]": {"tested_on": "Tfam, PGC-1α and MFN2 mRNA", "assay": "mitochondrial biogenesis markers, quantitative RT-PCR in Neuro2a cells", "format": "cell-based", "conditions": "10 μM, 3 d", "description": "Three days later cells were shifted to serum-starvation medium containing DMSO (control) or resveratrol (10 μM). In addition, uninfected Neuro2a cells in serum-starvation medium were treated with resveratrol alone, the AMPK inhibitor Compound C (CC, Biomol International L.P. (Plymouth Meeting, Pa.)) (10 μM) alone or with resveratrol and CC together. […] Values were normalized to the 18S transcript. Data shown is representative of two independent experiments.\nProtein and mRNA analysis. […] Quantitative RT-PCR analysis was performed using Sybr-Green methodology on a model 7700 instrument (Applied Biosystems) as previously described (Araki et al., 2004, Science 305:1010-1013).\nWe treated Neuro2a cells for 3d with either DMSO (control) or resveratrol (10 μM) in the presence or absence of the AMPK inhibitor Compound C (10 μM). We assessed mitochondrial biogenesis by monitoring mRNA levels of mitofusin 2 (MFN2), a mitochondrial protein and marker of mitochondrial mass and two key regulators of mitochondrial biogenesis, peroxisome proliferator activated receptor γ coactivator 1α (PGC1α) and mitochondrial transcription factor A (Tfam) (Kelly, et al., 2004, Genes Dev 18:357-368)."}, "AMPK": {"tested_on": "AMPK", "assay": "AMPK phosphorylation in brain after intraperitoneal injection", "format": "in vivo, mice", "conditions": "single intraperitoneal injection 20 mg/kg; within 2 h", "protocol": "FIG. 15A-E illustrates that resveratrol treatment causes AMPK phosphorylation in the brain. Two-month-old male mice were injected intraperitoneally with resveratrol (20 mg/kg body weight) or DMSO (vehicle) (n=3, for each treatment). Two hr after treatment, the animals were sacrificed and brain lysates were prepared. […] Total AMPK and ACC levels are shown as loading controls in B and D. (E) Densitometry was used to quantify the increased level of AMPK and ACC phosphorylation in the brain of resveratrol treated animals (* p<0.005).\nTo extend our in vitro results, we tested whether treating mice with resveratrol activates AMPK in the brain. We injected intraperitoneally 2-month-old male mice with either resveratrol (20 mg/kg body weight) or DMSO (vehicle) (n=3 for each group)."}, "neuro2A cells": {"tested_on": "neuro2A cells", "assay": "survival of Neuro2A cells in nutrient-deprived conditions", "format": "cell-based", "conditions": "regardless of the FCS concentration (10% or 0.2%)", "description": "When Neuro2A cells are grown in culture in presence of 10% FCS, cells proliferate and ultimately die if cells are not passaged. If grown in the presence of 0.2% FCS, neuro2A cells differentiate and project neurites but ultimately die within one week."}}, "data": [{"smiles": "Oc1ccc(C=Cc2cc(O)cc(O)c2)cc1", "note": "[resveratrol]", "values": [{"measurement": "increase in MFN2 mRNA", "setting": "[1]", "result": 2, "unit": "fold"}, {"measurement": "increase in PGC-1α mRNA", "setting": "[1]", "result": 2, "unit": "fold"}, {"measurement": "increase in Tfam mRNA", "setting": "[1]", "result": "~18", "unit": "fold"}, {"measurement": "increased AMPK phosphorylation in the brain", "setting": "AMPK", "result": 2.5, "unit": "fold"}, {"measurement": "cell survival", "setting": "neuro2A cells", "result": "resistant to death for a prolonged period of time"}]}]}
